What was measured:
TGFBR2 = biological target: T1, TGFBR2 (Homo sapiens, UniProt P37173); assay: HotSpot kinase assay; format: biochemical; settings: read-out: IC50 (M) of Control Compound
T1 construct: purchased Reaction Biology Corporation
Experimental: (§1) Kinase activity were performed by Reaction Biology Corporation using the “HotSpot” assay platform modified from the published procedure.

WNK3 = biological target: T2, WNK3 (Homo sapiens, UniProt Q9BYP7); assay: HotSpot kinase assay; format: biochemical; settings: read-out: IC50 (M) of Control Compound
T2 construct: purchased Reaction Biology Corporation
Experimental: as §1

[1] = Parallel artificial membrane permeability assay (PAMPA); format: in vitro ADME
MDCK-MDR1 cell = settings: 5 µM
in vitro = settings: dog, MDCK-MDR1
NEK6 = biological target: T3, NEK6 (Homo sapiens, UniProt Q9HC98); assay: HotSpot kinase assay; format: biochemical; settings: read-out: IC50 (M) of Control Compound
T3 construct: purchased Reaction Biology Corporation
Experimental: as §1

NEK7 = biological target: T4, NEK7 (Homo sapiens, UniProt Q8TDX7); assay: HotSpot kinase assay; format: biochemical; settings: read-out: IC50 (M) of Control Compound
T4 construct: purchased Reaction Biology Corporation
Experimental: as §1

ERK1 = biological target: T5, ERK1 (Homo sapiens, UniProt P27361); assay: HotSpot kinase assay; format: biochemical; settings: read-out: IC50 (M) of Control Compound
T5 construct: purchased Reaction Biology Corporation
Experimental: as §1

ARAF = biological target: T6, ARAF (Homo sapiens, UniProt P10398); assay: HotSpot kinase assay; format: biochemical; settings: read-out: IC50 (M) of Control Compound
T6 construct: purchased Reaction Biology Corporation
Experimental: as §1

CK2a = biological target: T7, CK2a (Homo sapiens, UniProt P68400); assay: HotSpot kinase assay; format: biochemical; settings: read-out: IC50 (M) of Control Compound
T7 construct: purchased Reaction Biology Corporation
Experimental: as §1

DYRK4 = biological target: T8, DYRK4 (Homo sapiens, UniProt Q9NR20); assay: HotSpot kinase assay; format: biochemical; settings: read-out: IC50 (M) of Control Compound
T8 construct: purchased Reaction Biology Corporation
Experimental: as §1

PDK1/PDHK1 = biological target: T9, PDK1/PDHK1 (Homo sapiens, UniProt Q15118); assay: HotSpot kinase assay; format: biochemical; settings: read-out: IC50 (M) of Control Compound
T9 construct: purchased Reaction Biology Corporation
Experimental: as §1

PDK2/PDHK2 = biological target: T10, PDK2/PDHK2 (Homo sapiens, UniProt Q15119); assay: HotSpot kinase assay; format: biochemical; settings: read-out: IC50 (M) of Control Compound
T10 construct: purchased Reaction Biology Corporation
Experimental: as §1

PDK3/PDHK3 = biological target: T11, PDK3/PDHK3 (Homo sapiens, UniProt Q15120); assay: HotSpot kinase assay; format: biochemical; settings: read-out: IC50 (M) of Control Compound
T11 construct: purchased Reaction Biology Corporation
Experimental: as §1

PDK4/PDHK4 = biological target: T12, PDK4/PDHK4 (Homo sapiens, UniProt Q16654); assay: HotSpot kinase assay; format: biochemical; settings: read-out: IC50 (M) of Control Compound
T12 construct: purchased Reaction Biology Corporation
Experimental: as §1

ZAK/MLTK = biological target: T13, ZAK/MLTK (Homo sapiens, UniProt Q9NYL2); assay: HotSpot kinase assay; format: biochemical; settings: read-out: IC50 (M) of Control Compound
T13 construct: purchased Reaction Biology Corporation
Experimental: as §1

NEK3 = biological target: T14, NEK3 (Homo sapiens, UniProt P51956); assay: HotSpot kinase assay; format: biochemical; settings: read-out: IC50 (M) of Control Compound
T14 construct: purchased Reaction Biology Corporation
Experimental: as §1

Akt, PDPK1, PLCγ = settings: apyrase 10 U/ml

T13 sequence (Q9NYL2 whole entry): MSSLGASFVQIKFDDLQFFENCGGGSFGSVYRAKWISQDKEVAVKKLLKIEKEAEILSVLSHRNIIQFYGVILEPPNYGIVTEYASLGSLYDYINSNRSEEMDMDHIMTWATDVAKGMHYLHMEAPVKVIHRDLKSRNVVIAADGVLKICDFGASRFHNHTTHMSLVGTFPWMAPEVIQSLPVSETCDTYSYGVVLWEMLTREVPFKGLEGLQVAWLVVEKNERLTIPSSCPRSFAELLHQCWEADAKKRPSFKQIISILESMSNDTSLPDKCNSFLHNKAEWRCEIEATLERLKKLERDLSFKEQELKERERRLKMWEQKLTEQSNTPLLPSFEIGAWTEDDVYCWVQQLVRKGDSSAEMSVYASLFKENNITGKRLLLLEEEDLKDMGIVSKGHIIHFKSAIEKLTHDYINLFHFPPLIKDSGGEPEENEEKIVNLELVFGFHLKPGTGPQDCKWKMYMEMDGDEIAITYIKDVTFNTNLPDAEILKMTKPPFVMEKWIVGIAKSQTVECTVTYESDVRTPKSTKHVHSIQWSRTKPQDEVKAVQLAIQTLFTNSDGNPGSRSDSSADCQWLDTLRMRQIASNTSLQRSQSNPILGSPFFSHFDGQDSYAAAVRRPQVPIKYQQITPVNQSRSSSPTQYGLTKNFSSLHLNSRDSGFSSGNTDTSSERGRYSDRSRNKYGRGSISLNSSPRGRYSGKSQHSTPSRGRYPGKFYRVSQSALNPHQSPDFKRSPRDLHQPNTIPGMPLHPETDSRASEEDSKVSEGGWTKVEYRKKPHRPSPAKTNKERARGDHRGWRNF
T1 sequence (P37173 23-567): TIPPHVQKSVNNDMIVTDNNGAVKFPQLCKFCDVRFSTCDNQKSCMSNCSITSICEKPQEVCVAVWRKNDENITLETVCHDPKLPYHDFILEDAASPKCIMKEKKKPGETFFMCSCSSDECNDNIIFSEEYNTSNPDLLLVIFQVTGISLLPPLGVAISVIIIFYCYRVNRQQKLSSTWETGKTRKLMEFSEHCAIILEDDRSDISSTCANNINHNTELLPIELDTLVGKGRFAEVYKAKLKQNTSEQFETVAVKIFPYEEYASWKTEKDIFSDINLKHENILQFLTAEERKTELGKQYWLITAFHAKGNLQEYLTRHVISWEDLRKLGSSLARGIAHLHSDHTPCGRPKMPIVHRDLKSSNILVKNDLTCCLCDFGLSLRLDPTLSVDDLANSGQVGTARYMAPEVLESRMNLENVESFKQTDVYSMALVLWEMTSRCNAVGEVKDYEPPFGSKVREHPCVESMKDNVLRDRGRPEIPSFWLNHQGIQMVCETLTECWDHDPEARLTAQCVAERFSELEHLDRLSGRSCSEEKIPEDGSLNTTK
T12 sequence (Q16654 whole entry): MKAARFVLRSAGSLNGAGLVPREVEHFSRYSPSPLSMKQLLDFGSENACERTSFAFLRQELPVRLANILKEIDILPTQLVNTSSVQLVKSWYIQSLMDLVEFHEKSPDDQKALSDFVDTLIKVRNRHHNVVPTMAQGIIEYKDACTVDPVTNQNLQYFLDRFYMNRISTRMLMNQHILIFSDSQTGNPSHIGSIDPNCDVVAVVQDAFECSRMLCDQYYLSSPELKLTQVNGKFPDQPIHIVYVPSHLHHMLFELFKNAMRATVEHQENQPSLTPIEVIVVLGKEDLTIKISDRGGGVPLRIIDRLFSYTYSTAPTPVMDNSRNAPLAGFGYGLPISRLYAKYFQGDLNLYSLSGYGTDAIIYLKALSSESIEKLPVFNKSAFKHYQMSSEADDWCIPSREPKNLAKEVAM
T9 sequence (Q15118 29-436): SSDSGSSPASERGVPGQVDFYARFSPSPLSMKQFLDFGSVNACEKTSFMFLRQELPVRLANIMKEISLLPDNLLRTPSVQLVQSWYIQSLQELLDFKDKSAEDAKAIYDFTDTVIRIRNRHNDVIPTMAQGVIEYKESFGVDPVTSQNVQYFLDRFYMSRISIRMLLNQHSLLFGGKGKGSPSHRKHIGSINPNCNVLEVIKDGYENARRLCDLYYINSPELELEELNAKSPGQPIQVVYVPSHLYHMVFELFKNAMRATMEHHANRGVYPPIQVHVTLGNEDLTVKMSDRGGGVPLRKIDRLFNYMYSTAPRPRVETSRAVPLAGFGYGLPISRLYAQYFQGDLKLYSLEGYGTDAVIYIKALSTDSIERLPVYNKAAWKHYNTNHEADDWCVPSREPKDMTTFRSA
T2 sequence (Q9BYP7 whole entry): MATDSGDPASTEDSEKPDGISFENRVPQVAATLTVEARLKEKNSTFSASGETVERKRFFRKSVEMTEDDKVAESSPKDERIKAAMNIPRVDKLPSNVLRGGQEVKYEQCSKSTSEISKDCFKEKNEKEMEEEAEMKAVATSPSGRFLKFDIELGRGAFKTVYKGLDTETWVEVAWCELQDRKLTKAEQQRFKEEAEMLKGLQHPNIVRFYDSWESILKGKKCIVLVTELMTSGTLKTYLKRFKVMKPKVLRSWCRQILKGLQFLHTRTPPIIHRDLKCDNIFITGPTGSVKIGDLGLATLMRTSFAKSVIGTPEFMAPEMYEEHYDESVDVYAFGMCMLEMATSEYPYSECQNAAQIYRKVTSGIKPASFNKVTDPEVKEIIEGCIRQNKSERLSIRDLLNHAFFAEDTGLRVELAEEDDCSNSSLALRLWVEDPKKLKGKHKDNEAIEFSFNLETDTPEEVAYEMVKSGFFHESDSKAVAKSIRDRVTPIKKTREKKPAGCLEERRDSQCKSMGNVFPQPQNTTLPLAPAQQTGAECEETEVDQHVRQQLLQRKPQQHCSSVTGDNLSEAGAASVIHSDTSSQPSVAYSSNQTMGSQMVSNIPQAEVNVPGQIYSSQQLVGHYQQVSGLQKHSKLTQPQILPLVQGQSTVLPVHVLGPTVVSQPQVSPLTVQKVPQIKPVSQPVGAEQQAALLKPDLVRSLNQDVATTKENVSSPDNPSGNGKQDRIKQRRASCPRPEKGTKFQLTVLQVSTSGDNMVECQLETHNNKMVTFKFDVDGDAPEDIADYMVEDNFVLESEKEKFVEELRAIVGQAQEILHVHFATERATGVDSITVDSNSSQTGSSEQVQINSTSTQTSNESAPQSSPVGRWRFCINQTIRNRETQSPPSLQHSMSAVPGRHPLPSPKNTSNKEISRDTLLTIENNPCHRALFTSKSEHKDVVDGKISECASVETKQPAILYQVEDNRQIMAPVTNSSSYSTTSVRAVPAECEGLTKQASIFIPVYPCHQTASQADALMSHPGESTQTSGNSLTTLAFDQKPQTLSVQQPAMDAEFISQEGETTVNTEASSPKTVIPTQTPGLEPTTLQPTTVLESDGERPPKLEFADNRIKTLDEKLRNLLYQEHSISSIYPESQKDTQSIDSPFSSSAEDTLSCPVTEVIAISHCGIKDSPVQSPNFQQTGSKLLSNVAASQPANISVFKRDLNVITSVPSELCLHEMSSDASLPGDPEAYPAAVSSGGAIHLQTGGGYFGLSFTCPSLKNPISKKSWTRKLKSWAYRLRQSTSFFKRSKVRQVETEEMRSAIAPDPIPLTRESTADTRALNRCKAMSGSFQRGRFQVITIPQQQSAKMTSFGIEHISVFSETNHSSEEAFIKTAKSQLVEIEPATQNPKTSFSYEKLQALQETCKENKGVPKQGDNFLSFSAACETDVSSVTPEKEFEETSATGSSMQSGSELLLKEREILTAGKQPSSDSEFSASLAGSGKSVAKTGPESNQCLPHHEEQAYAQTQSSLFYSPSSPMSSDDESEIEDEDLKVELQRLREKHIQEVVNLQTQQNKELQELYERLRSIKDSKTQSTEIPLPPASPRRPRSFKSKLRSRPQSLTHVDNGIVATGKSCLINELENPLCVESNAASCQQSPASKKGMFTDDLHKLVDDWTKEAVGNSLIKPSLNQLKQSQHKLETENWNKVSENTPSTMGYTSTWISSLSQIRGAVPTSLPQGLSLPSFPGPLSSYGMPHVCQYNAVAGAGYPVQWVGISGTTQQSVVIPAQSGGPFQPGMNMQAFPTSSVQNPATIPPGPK
T14 sequence (P51956 whole entry): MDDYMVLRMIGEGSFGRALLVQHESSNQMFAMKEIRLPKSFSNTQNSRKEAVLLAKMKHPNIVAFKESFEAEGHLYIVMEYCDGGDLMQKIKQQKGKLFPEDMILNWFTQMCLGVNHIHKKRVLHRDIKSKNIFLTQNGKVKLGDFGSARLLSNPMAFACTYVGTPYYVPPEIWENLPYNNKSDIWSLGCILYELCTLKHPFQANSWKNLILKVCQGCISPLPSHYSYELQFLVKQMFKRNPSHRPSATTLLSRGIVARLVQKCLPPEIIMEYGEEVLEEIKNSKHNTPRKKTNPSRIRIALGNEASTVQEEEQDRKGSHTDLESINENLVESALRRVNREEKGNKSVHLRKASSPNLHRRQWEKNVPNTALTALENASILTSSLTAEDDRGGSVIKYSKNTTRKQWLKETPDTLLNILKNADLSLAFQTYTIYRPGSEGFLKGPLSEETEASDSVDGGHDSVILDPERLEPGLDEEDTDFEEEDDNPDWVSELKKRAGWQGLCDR
T3 sequence (Q9HC98 whole entry): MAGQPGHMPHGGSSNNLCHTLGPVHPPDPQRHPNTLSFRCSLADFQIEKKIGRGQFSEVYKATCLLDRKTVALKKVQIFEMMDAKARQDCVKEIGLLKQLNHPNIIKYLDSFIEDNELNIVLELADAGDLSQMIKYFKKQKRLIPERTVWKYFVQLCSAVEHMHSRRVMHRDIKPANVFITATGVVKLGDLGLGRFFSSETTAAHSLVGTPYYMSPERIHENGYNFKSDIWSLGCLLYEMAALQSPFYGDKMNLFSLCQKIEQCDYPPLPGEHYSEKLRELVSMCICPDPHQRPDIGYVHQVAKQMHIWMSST

## c1ccc2c(-c3cnn4cc(-c5ccc(N6CCNCC6)cc5)cnc34)ccnc2c1 [LDN193189, reference compound]
TGFBR2
  IC50: 1.09e-07 M

## O=C1NC(=O)c2c1c(-c1ccccc1Cl)cc1[nH]c3ccc(O)cc3c21 [Wee-1 Inhibitor, reference compound]
WNK3
  IC50: 1.49e-06 M

## CC(C)NCC(O)COc1cccc2ccccc12 (stereo not shown) [Propranolol]
[1]; 100 µM
  Recover %: 85%
[1]; PAMPA, PBS pH 7.4, 5 h
  Papp at 5 h, 100 μM: 8.99 ×10⁻⁶ cm/s
MDCK-MDR1 cell
  Recover %: 93%
In vitro
  Papp at 1 h, 5 μM: 67.4 ×10⁻⁶ cm/s

## O=C1Nc2ccc3ncsc3c2/C1=C/c1cnc[nH]1 [PKR Inhibitor, reference compound]
NEK6
  IC50: 9.32e-06 M
NEK7
  IC50: 8.35e-06 M

## O=C(Nc1ccc2[nH]nc(-c3ccncc3)c2c1)[C@@H]1CCN(CC(=O)N2CCN(c3ccc(-c4ncccn4)cc3)CC2)C1 [SCH772984, reference compound]
ERK1
  IC50: 2.42e-09 M

## O=C1Nc2ccc(I)cc2/C1=C/c1cc(Br)c(O)c(Br)c1 [GW5074, reference compound]
ARAF
  IC50: 1.39e-08 M
CK2a
  IC50: 2.67e-07 M
DYRK4
  IC50: 4.12e-06 M
PDK1/PDHK1
  IC50: 8.63e-06 M
PDK2/PDHK2
  IC50: 5.05e-06 M
PDK3/PDHK3
  IC50: 2.57e-06 M
PDK4/PDHK4
  IC50: 1.89e-06 M
ZAK/MLTK
  IC50: 1.89e-06 M

## CN(C)C/C=C/C(=O)Nc1cccc(C(=O)Nc2ccc(Nc3nccc(-c4cccnc4)n3)cc2)c1 [JNK-IN-7, reference compound]
NEK3
  IC50: 5.46e-08 M

## Apyrase [reference compound]
Akt, PDPK1, PLCγ
  HSV-induced phosphorylation of Akt and PDPK1 in non-permeabilized cells: inhibited

Source: paper PMC9569420 (Communications Biology, 2022)
